Laboratory results from patent publication US20100210816A1, “NMDAR Biomarkers for Diagnosing and Treating Cerebral Ischemia” (priority 2006, published 2010).

Experiments:
NR2 antibodies [1] = test: NR2 antibody monitoring in three patients (minor CVA, TIA, ischemic stroke) given oral Trental; format: in vivo, human
Procedure: The first case was a non-smoker who had previously undergone valve replacement surgery in 1987 and had received a coronary artery stent in 2002. The patient had been treated with coumudin since the first surgery. NR2 antibodies measured at base line were […] the 2 ng/ml cutoff. (FIG. 1). […] At the same time, the patient had complaints on chronic fatigue and numbness in the 4th and 5th digits of their left arm lasting quite a long period of time. […] Antibodies continued to decrease up to 6th mo. after treatment was initiated and remained below the cut off level more than 1 year after therapy.
The second patient was a apparently healthy person. Their blood assay for NR2 antibodies was performed initially on a voluntary basis as a healthy control. […] The patient used Plavix and Lipitor on daily basis as well.
The third patient was an non-smoker who had suffered ischemic stroke on May 28-29, 2002 after angioplasty. They had receiving coumadin, eardizem, atenolol, hytrin, lasix, and guaifinex when they entered the study.

[2] = acute ischemic stroke; non-significant reduction; 95% CI: 0.41, 1.02; cited from earlier work
NR2 antibodies [3] = test: Serial blood NR2 antibody levels over 24 months of aspirin treatment follow up in individuals with DM/AS at high risk for CVA; format: in vivo, human; conditions: for NR2 antibodies, 6 mo.: 6 months; for NR2 antibodies, 0 mo.: base level before treatment
Procedure: (§1) In this study, serial measurements of blood levels of NR2 antibodies in an out-patient setting in individuals with diabetes mellitus (DM) and atherosclerosis (AS) who are at high risk for subsequent CVA were evaluated to establish whether this biomarker can be used to monitor the efficacy of aspirin treatment. Every person who participated in the study underwent neurological examination and computed tomography (CT) of the brain. The age of the 33 persons (17 male/16 female) ranged from 47-64 yrs (mean 55.7 yrs). Patients with documented 5-10 year history of DM/AS and normal neurological examination without a previous history of neurological event such as transient ischemic attack (TIA), or prolonged reversible ischemic neurological deficit or stroke were observed. Based on laboratory and clinical testing, all participants were at borderline glucose intolerance, with blood glucose levels of 119 to 132 mg/dL, and had complaints on fatigue, low concentration of attention, and numbness in digits of left or right hand.
Out of 22 individuals, 10 (6 male/4 female) were randomly assigned to a placebo group and the rest used daily over-counter aspirin in a dose of 325 mg which formed group 1 (Table 3). None of people of group 1 developed the resistance to aspirin.
NR2 antibodies were detected at a base level for each group before treatment was initiated (0 mo.) and then each following 6 months for two years. […] A TIA event was documented in 1 patient from the placebo group. […] By the end of the study at 24 mo., two out of 9 persons suffered a TIA which developed into an acute ischemic stroke in one patient.

[4] = TIA rate over 24 months of aspirin treatment follow up in individuals with DM/AS; format: in vivo, human; conditions: 24 months follow up
Procedure: as §1
Out of 22 individuals, 10 (6 male/4 female) were randomly assigned to a placebo group and the rest used daily over-counter aspirin in a dose of 325 mg which formed group 1 (Table 3). […]
NR2 antibodies were detected at a base level for each group before treatment was initiated (0 mo.) and then each following 6 months for two years. […]

[5] = large meta-analysis, BMJ 1994; cited from earlier work
[6] = patients with TIA or minor CVA; cited from earlier work
[7] = Group 1 (not aspirin-resistant, N=12), aspirin 325 mg daily
[8] = Group 2 (resistant to aspirin, N=9), aspirin 325 mg/day

Compound | Effect on level of NR2 antibodies (NR2 antibodies [1]; person after TIA, oral 200 mg twice a day for 30 days, FIG. 2) | Effect on level of NR2 antibodies (NR2 antibodies [1]; person after ischemic stroke, oral 200 mg x 3 times a day for 60 days, FIG. 3) | Effect on level of NR2 antibodies (NR2 antibodies [1]; person, minor CVA, oral 200 mg twice a day for 30 days, FIG. 1) | Odds ratio of early death [2] | NR2 antibodies, 6 mo. (NR2 antibodies [3]; [7]) [ng/mL] | NR2 antibodies, 0 mo. (NR2 antibodies [3]; [7]) [ng/mL] | Change of NR2 antibody levels (NR2 antibodies [3]; Group 1, aspirin 325 mg daily, below cut off of 2 ng/ml, no CVA consequences) | NR2 antibodies, 6 mo. (NR2 antibodies [3]; [8]) [ng/mL] | NR2 antibodies, 0 mo. (NR2 antibodies [3]; [8]) [ng/mL] | Change of NR2 antibody levels (NR2 antibodies [3]; Group 2, patients resistant to aspirin, any time during the study) | TIA rate [4, 7] | TIA rate [4, 8] | Reduction of incidence of stroke, myocardial infarction, or vascular death [5] [%] | Reduction of the risk of TIA [6] [%]
CC(=O)CCCCn1c(=O)c2c(ncn2C)n(C)c1=O [Trental, pentoxifylline] | reduced the level of NR2 antibodies to the control level of healthy individuals | reduced the level of NR2 antibodies to the cut off | reduced the level of NR2 antibodies by the end of treatment | 0.64 | – | – | – | – | – | – | – | – | – | –
CC(=O)Oc1ccccc1C(=O)O [aspirin] | – | – | – | – | 2.51 ± 0.28 | 3.05 ± 0.21 | significantly reduced | 3.22 ± 0.30 | 2.87 ± 0.11 | no improvement in NR2 antibodies levels | 0 | 2/9 | 25 | 20
